Patent publication US4478845A, “Antiinflammatory and/or analgesic imidazoimidazoles” (E. I. Du Pont de Nemours and Company, priority 1983, dated 1984)
Like-named read-outs stand apart in the source and are kept apart here.

Columns and labels:
[1] = tested on: adjuvant-induced arthritis in rats (paw volume); experiment: Established Adjuvant-Induced Arthritis in Rats; format: in vivo, Charles River Lewis male rats; settings: for ED50: Rattus norvegicus, read-out: Adjuvant Arthritic ED50; for percent reduction in paw volume at the indicated dose: at 45 (mg/kg)
[2] = tested on: phenylquinone-induced writhing in mice; experiment: Phenylquinone Writhing Test; format: in vivo, female white mice; settings: Mus musculus, read-out: Phenylquinone Writhing (PQW) ED50
Protocol: A test compound suspended in 1% methylcellulose was given orally to fasted (17-21 hours) female white mice, 5-20 animals per double blind test. Aqueous (0.01% phenyl-p-benzoquinone) phenylquinone, 0.20 ml per mouse, was injected intraperitoneally 6 minutes before observations were begun.

[3] = oral, rats, 7 daily doses, ED50% decrease from control paw volume (uninjected, left hind paw)
[4] = oral, fasted female mice, effective analgesic dose for 50% of the mice

SMILES | ED50 ([1]; po) | ED50 [1, 3] | ED50 ([2]; po) | percent reduction in paw volume at the indicated dose ([1]; oral, rats, 7 daily doses) | ED50 [2, 4]
CC(=O)Oc1ccccc1C(=O)O [Aspirin] | 305 mg/kg |  |  |  | 
CC1=NC(C(F)(F)F)(C(F)(F)F)c2nc(-c3ccc(F)cc3)c(-c3ccc(F)cc3)n21 [Example 1, 2,3-bis(4-Fluorophenyl)-5-methyl-7,7-bis(trifluoromethyl)imidazo[1,5-a]imidazole] |  | 6.5 mg/kg | 135 mg/kg |  | 
COc1ccc(-c2nc3n(c2-c2ccc(OC)cc2)C(C)=NC3(C(F)(F)F)C(F)(F)F)cc1 [Example 2, 2,3-bis(4-Methoxyphenyl)-5-methyl-7,7-bis(trifluoromethyl)imidazo[1,5-a]imidazole] |  |  |  | 31% | 21 mg/kg
CC1=NC(C(F)(F)F)(C(F)(F)F)c2nc(-c3ccc(C)cc3)c(-c3ccc(C)cc3)n21 [Example 3, 2,3-bis(4-Methylphenyl)-5-methyl-7,7-bis(trifluoromethyl)imidazo[1,5-a]imidazole] |  |  |  | 44% | > 108 mg/kg
CC(C)Cc1ccc(C(C)C(=O)O)cc1 (stereo not shown) [Ibuprofen] |  | 100 mg/kg |  |  | 10 mg/kg
COc1ccc2c(c1)c(CC(=O)O)c(C)n2C(=O)c1ccc(Cl)cc1 [Indomethacin] | 0.3 mg/kg |  | 0.35 mg/kg |  | 
CCCCC1C(=O)N(c2ccccc2)N(c2ccccc2)C1=O [Phenylbutazone] |  | 10 mg/kg |  |  | 80 mg/kg
